Some test systems named below: DU-145 prostate; HCT-116 colon; HCT-15 colon; K-562 leukemia; NCI-H522 lung; RPMI-8226 leukemia; SF-295 CNS; TK-10 renal; UACC-257 melanoma; IGROV1 ovarian.
Holding throughout (test): NCI-60 cell line screen, 48 h

This is an account of results in PubChem BioAssay (NCI).

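Growth conditions: 96-well plates. Treatment: test compound, 48 hours, 5 concentrations. Analysis: linear interpolation between bracketing concentrations; unreached endpoints set to highest concentration. The concentration for 50% growth inhibition is given as GI50. TGI denotes the concentration required for complete inhibition of growth.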

For the molecule `CC1COCC(C)N1C1=C(Cl)C(=O)c2ccccc2C1=O` (configuration not stated), the GI50 with DU-145 prostate is 10.7 µM; in the experiment with HCT-116 colon, 1.65 µM; in the experiment with HCT-15 colon, 6.5 µM; with K-562 leukemia, 2.81 µM; in the experiment with NCI-H522 lung, 1.59 µM; in the experiment on RPMI-8226 leukemia, 2.04 µM. Moreover, the GI50 in the experiment on SF-295 CNS was 2.94 µM; in the experiment with TK-10 renal it was 13 µM; with UACC-257 melanoma, 1.6 µM. In addition, the TGI in the experiment on DU-145 prostate worked out at 22.9 µM; in the experiment on HCT-116 colon it was 3.01 µM; with HCT-15 colon it was 23.4 µM; in the experiment on K-562 leukemia, 12 µM; with NCI-H522 lung, 3.02 µM; in the experiment with RPMI-8226 leukemia, 5.68 µM. Further, the TGI in the experiment with SF-295 CNS worked out at 17.7 µM; in the experiment with TK-10 renal it was 26.2 µM; in the experiment with UACC-257 melanoma it was 3.08 µM.

Consider `CC1=C(C(=O)Nc2ccc(Cl)c(Cl)c2)C(c2ccccc2O)NC(=O)N1` (configuration not stated), for which the GI50 with DU-145 prostate is above 50 µM; with HCT-15 colon it was above 50 µM; in the experiment on IGROV1 ovarian it was above 50 µM; in the experiment with K-562 leukemia it was 26 µM; in the experiment on NCI-H522 lung, above 50 µM; in the experiment on RPMI-8226 leukemia it was 34.8 µM. Besides, the values for the GI50 with SF-295 CNS, in the experiment with TK-10 renal and with UACC-257 melanoma were 40.3 µM, 22.1 µM and above 50 µM, respectively. Also, the TGI in the experiment on DU-145 prostate, with HCT-15 colon, in the experiment on IGROV1 ovarian, with K-562 leukemia, in the experiment with NCI-H522 lung and in the experiment on RPMI-8226 leukemia was above 50 µM each time. The TGI with SF-295 CNS, in the experiment on TK-10 renal and in the experiment on UACC-257 melanoma was above 50 µM throughout.

Consider `COc1cccc(/C=C/C(=O)c2cc3c(N)c(C(=O)Nc4cccc5ccccc45)sc3nc2C)c1`, for which the GI50 with DU-145 prostate is 1.14 µM; in the experiment on HCT-116 colon it was 0.619 µM; in the experiment with HCT-15 colon, 0.624 µM; in the experiment with IGROV1 ovarian, 1.05 µM; in the experiment on K-562 leukemia, 0.562 µM; in the experiment with NCI-H522 lung, 0.435 µM. The GI50 with RPMI-8226 leukemia was 0.461 µM; in the experiment on SF-295 CNS it was 1.67 µM; with TK-10 renal it was 1.78 µM; in the experiment with UACC-257 melanoma it was 1.48 µM. The TGI in the experiment on DU-145 prostate is 2.86 µM; in the experiment on HCT-116 colon it was 1.6 µM; in the experiment with HCT-15 colon, 1.86 µM; in the experiment on IGROV1 ovarian, 2.78 µM; in the experiment on K-562 leukemia, above 50 µM; in the experiment on NCI-H522 lung it was 3.06 µM. The TGI in the experiment on RPMI-8226 leukemia was 2.73 µM; with SF-295 CNS it was 23.1 µM; in the experiment with TK-10 renal it was above 50 µM; with UACC-257 melanoma it was 10.6 µM.

As for `CO[C@@]12[C@@H]3NC3CN1C1=C(C(=O)C(N)=C(C)C1=O)[C@@H]2COC(N)=O` (some centres not stated), the TGI is 11.9 µM in the experiment with DU-145 prostate; 3.26 µM in the experiment with HCT-116 colon; above 100 µM in the experiment with HCT-15 colon; 4 µM in the experiment with IGROV1 ovarian; above 100 µM in the experiment with K-562 leukemia; 2.13 µM in the experiment on NCI-H522 lung. The figures for the TGI with RPMI-8226 leukemia, with TK-10 renal and in the experiment with UACC-257 melanoma were 27.8 µM, 5.85 µM and 2.14 µM, respectively. Moreover, the GI50 in the experiment with HCT-116 colon was 0.53 µM; in the experiment on HCT-15 colon, 0.807 µM; with IGROV1 ovarian, 1.3 µM; with K-562 leukemia it was 0.965 µM; in the experiment on NCI-H522 lung, 0.325 µM; in the experiment on RPMI-8226 leukemia, 1.84 µM. The GI50 in the experiment with TK-10 renal was 1.68 µM.

As to `COc1cc([N+](=O)[O-])c2ncccc2c1[N+](=O)[O-]`, the GI50 in the experiment on DU-145 prostate was 4.39 µM; in the experiment on HCT-116 colon, 3.47 µM; with HCT-15 colon, 5.39 µM; with K-562 leukemia, 3.97 µM; in the experiment with NCI-H522 lung, 1.13 µM; in the experiment with RPMI-8226 leukemia, 6.15 µM. Besides, the GI50 with SF-295 CNS was 4.51 µM; with TK-10 renal, 7.04 µM; with UACC-257 melanoma it was 13.5 µM. Besides, the TGI in the experiment with DU-145 prostate was 15.8 µM; with HCT-116 colon, 11.9 µM; in the experiment on HCT-15 colon, 21.6 µM; in the experiment with K-562 leukemia it was above 100 µM; in the experiment on NCI-H522 lung it was 2.62 µM; in the experiment with RPMI-8226 leukemia it was 26.5 µM. For the same molecule, the TGI in the experiment on SF-295 CNS stood at 14.3 µM; in the experiment on TK-10 renal, 19.6 µM; in the experiment on UACC-257 melanoma it was 31.2 µM.

With `CN1CCN(c2nc(-c3ccncc3)nc3sc4c(c23)CCCCCC4)CC1`, the GI50 in the experiment on DU-145 prostate was 12.7 µM; in the experiment with HCT-116 colon, 5.13 µM; with HCT-15 colon, 11.3 µM; in the experiment with IGROV1 ovarian, 8.16 µM; in the experiment with K-562 leukemia it was 3.53 µM; with NCI-H522 lung, 12 µM. In addition, the results for the GI50 with RPMI-8226 leukemia, with TK-10 renal and with UACC-257 melanoma were 8.39 µM, 6.71 µM and 10.6 µM, respectively. For the same molecule, the TGI in the experiment with DU-145 prostate stood at 26.4 µM; in the experiment on HCT-116 colon, 17.7 µM; in the experiment on HCT-15 colon, 24.3 µM; in the experiment on IGROV1 ovarian, 22 µM; in the experiment on K-562 leukemia, 16.3 µM; in the experiment on NCI-H522 lung it was 24.6 µM. In addition, the TGI came out at 26.9 µM with RPMI-8226 leukemia, 20.5 µM in the experiment with TK-10 renal and 23 µM with UACC-257 melanoma.

Regarding `CC(=O)OC1CC2C(=O)C(=O)C1(C)C2(C)C` (configuration not stated), the TGI in the experiment on DU-145 prostate, in the experiment on HCT-116 colon, with HCT-15 colon, in the experiment on IGROV1 ovarian, with K-562 leukemia and with RPMI-8226 leukemia was above 100 µM in each case. Also, the TGI with SF-295 CNS, in the experiment on TK-10 renal and in the experiment with UACC-257 melanoma was above 100 µM in each case.

Take `CSC1=NCC2(S1)c1ccccc1N(C(=O)OC(C)(C)C)C2N1CCCCC1` (configuration not stated): the GI50 in the experiment with DU-145 prostate is above 100 µM; in the experiment on HCT-116 colon, 40.6 µM; in the experiment with IGROV1 ovarian it was above 100 µM; in the experiment with K-562 leukemia, 73.8 µM; with NCI-H522 lung, 27.5 µM; with RPMI-8226 leukemia, above 100 µM. For the same molecule, the GI50 with TK-10 renal and with UACC-257 melanoma was above 100 µM throughout. In addition, the TGI in the experiment with DU-145 prostate, in the experiment on HCT-116 colon, in the experiment with IGROV1 ovarian, with K-562 leukemia, in the experiment with NCI-H522 lung and in the experiment on RPMI-8226 leukemia was above 100 µM in each case. In addition, the TGI in the experiment with TK-10 renal and with UACC-257 melanoma was above 100 µM throughout.

In the case of `CC1OC(OC2CCC3(C=O)C4CCC5(C)C(C6=CC(=O)OC6)CCC5(O)C4CCC3(O)C2)C(O)C(O)C1O` (configuration not stated), the TGI with DU-145 prostate was determined as 1.75e-05 µM; with HCT-15 colon it was 9.68e-05 µM; with IGROV1 ovarian, 0.0179 µM; in the experiment with K-562 leukemia, 0.000263 µM; with NCI-H522 lung, 4.41e-05 µM; with RPMI-8226 leukemia, 0.000124 µM. For the same molecule, the TGI with SF-295 CNS came to 6.69e-05 µM; with TK-10 renal it was 0.000193 µM; with UACC-257 melanoma, 0.000259 µM.
